Test results published in PubChem BioAssay (NCI).
Values joined by “and” are separate entries in the source; they are usually repeats but may differ in a detail not shown here. Identical values can stand only once.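 Protocol summary: plate cells (96-well), add compound at 5 concentrations, incubate 48 h, interpolate endpoints linearly. At the GI50, growth is halved. TGI is the concentration that stops growth completely.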

Columns and labels:
Assay in all cases: DTP human tumour cell line panel, 48 h
HOP-92 NSCLC = tested on: HOP-92 NSCLC
MDA-MB-231 breast = tested on: MDA-MB-231 breast
ACHN renal = tested on: ACHN renal
SK-MEL-5 melanoma = tested on: SK-MEL-5 melanoma
DU-145 prostate = tested on: DU-145 prostate
PC-3 prostate = tested on: PC-3 prostate
SR leukemia = tested on: SR leukemia
MOLT-4 leukemia = tested on: MOLT-4 leukemia
M14 melanoma = tested on: M14 melanoma
HCC-2998 colon = tested on: HCC-2998 colon

Row | Compound | GI50 (HOP-92 NSCLC) [µM] | TGI (HOP-92 NSCLC) [µM] | GI50 (MDA-MB-231 breast) | TGI (MDA-MB-231 breast) | GI50 (ACHN renal) | TGI (ACHN renal) | GI50 (SK-MEL-5 melanoma) | TGI (SK-MEL-5 melanoma) | GI50 (DU-145 prostate) | TGI (DU-145 prostate) | GI50 (PC-3 prostate) | TGI (PC-3 prostate) | GI50 (SR leukemia) | TGI (SR leukemia) | GI50 (MOLT-4 leukemia) | TGI (MOLT-4 leukemia) | GI50 (M14 melanoma) | TGI (M14 melanoma) | GI50 (HCC-2998 colon) | TGI (HCC-2998 colon)
1 | COc1ccc(Nn2c(SCC(=O)Nc3nc(-c4ccc(Cl)cc4)cs3)nc(C)c2C)cc1 | 2.42 | 7.8 | 8.37 µM | > 100 µM | 2.27 µM | 8.76 µM | 1.41 µM | 3.35 µM | 4.06 µM | > 100 µM | 2.65 µM | > 100 µM | 7.02 µM | > 100 µM | 2.54 µM | > 100 µM | 3.02 µM | > 100 µM | 3.07 µM | 9.91 µM
2 | CCNCC(=O)O[C@]1(CC)C(=O)OCc2c1cc1n(c2=O)Cc2cc3ccccc3nc2-1 |  | 13.8 |  | 98 µM |  | 1.98 µM |  | 1.27 µM |  | 1 µM |  | > 100 µM |  | 0.0327 µM |  | 0.159 µM |  | 13.7 µM |  | 6.88 µM
3 | CC(C)CCOc1ccc(-c2n[nH]c(C(F)(F)F)c2-c2cncc(C#N)c2)c(O)c1 | 0.519 | 3.33 | 2.43 µM | 6.43 µM | 2.54 µM | 9.02 µM | 0.943 µM | 2.57 µM | 4.18 µM | 46.3 µM | 2.12 µM | > 100 µM | 2.01 µM | 11.8 µM | 2.47 µM | 12.7 µM | 2.49 µM | 9.13 µM | 3.05 µM | 24.3 µM
4 | NC(CSC(c1ccccc1)(c1ccccc1)c1ccc(Cl)cc1)C(=O)O (stereo not given) | 1.4 | 39.3 | 0.442 µM | 35.8 µM | 2.6 µM | > 78.4 µM | 0.0612 µM | 14.1 µM | 0.307 µM | 0.863 µM | 0.342 µM | 32.6 µM | 0.121 µM | 5.93 µM | 1.66 µM | 53.3 µM | 0.0322 µM | 0.132 µM | 0.276 µM | 2.77 µM
5 | CC(C)C1OC(=O)C=C1Sc1ccccc1 (stereo not given) |  |  |  | > 100 µM |  | > 100 µM |  | > 100 µM |  | > 100 µM |  | > 100 µM |  | > 100 µM |  | > 100 µM |  | > 100 µM |  | > 100 µM
6 | NS(=O)(=O)c1cc2c(cc1Cl)NC(Cc1ccccc1)NS2(=O)=O (stereo not given) |  | > 100 |  | > 100 µM |  | > 100 µM |  | > 100 µM |  | > 100 µM |  | > 100 µM |  | > 100 µM |  |  |  | > 100 µM |  | > 100 µM
7 | O=C1C(Br)=CC2(C=C1Br)CCN=c1c2c(O)c2nc3ccccc3c3ccnc1c23 | 0.593 | 2.38 | 3.59 µM | 12.1 µM | 0.753 µM | 1.7 µM | 1.4 µM | 6.93 µM | 1.95 µM | 24.8 µM | 1.44 µM | 5.27 µM | 0.195 µM | 5.83 µM | 0.143 µM | 2.67 µM | 1.73 µM | 8.73 µM | 9.78 µM | 22.3 µM
8 | C1CCN(CCC2CCCCN2)CC1 (stereo not given) |  | > 100 |  | > 100 µM |  | > 100 µM |  | > 100 µM |  | > 100 µM |  | > 100 µM |  | > 100 µM |  | > 100 µM |  | > 100 µM |  | 
9 | CCN(CC)c1cc(/C=C/c2ccc(OC)c(OC)c2)nc2cc(F)c(F)cc12 | 1.68 | 4.74 | 2.3 µM | 7.47 µM | 2.56 µM | 9.76 µM | 6.33 µM | > 100 µM | 31.6 µM | > 100 µM | > 100 µM | > 100 µM | 3.15 µM | 12.3 µM | 14.2 µM | 33.6 µM | 26.3 µM | > 100 µM | 70.6 µM | > 100 µM
10 | CC1/C=C/C=C/C=C/C=C/C=C/C=C/C=C/C(O[C@@H]2O[C@H](C)[C@H](O)[C@@H](O)[C@@H]2N)CC(O)C(C(=O)O)C(O)CC(=O)CC(O)CC(O)CC(O)CC(=O)CCCC(=O)CC(=O)OC1C(C)CC(C)C(O)CC(=O)c1ccc(N)cc1 (stereo not given in full) | 0.184 | 0.537 | 0.0613 µM and 0.3 µM | 0.118 µM and 0.943 µM | 0.057 µM and 0.18 µM | 0.106 µM and 0.319 µM | 0.0522 µM and 0.212 µM | 0.0961 µM and 0.496 µM | 0.0687 µM and 0.335 µM | 0.148 µM and 1.06 µM | 0.0646 µM and 0.222 µM | 0.137 µM and 0.552 µM | 0.0835 µM and 0.168 µM | 0.254 µM and 0.422 µM | 0.0679 µM and 0.172 µM | 0.143 µM and 0.402 µM | 0.0574 µM and 0.197 µM | 0.11 µM and 0.416 µM | 0.058 µM and 0.302 µM | 0.104 µM and 1.03 µM
11 | ClC1=C(Cl)C(Cl)=C(Cl)C1=C/C=C/c1ccccc1 | 0.165 | 0.491 | 0.344 µM | > 100 µM | 0.318 µM | 0.855 µM | 0.196 µM | 0.563 µM | 0.42 µM | 1.32 µM | 0.276 µM | 2.65 µM | 0.138 µM |  | 0.335 µM |  | 0.279 µM | 0.882 µM | 0.229 µM | 0.464 µM
12 | CCSCC(N)C(=O)O (stereo not given) |  | > 100 |  | > 100 µM |  | > 100 µM |  | > 100 µM |  | > 100 µM |  | > 100 µM |  | > 100 µM |  |  |  | > 100 µM |  | 
13 | CC(C)[C@@]12C[C@@H](OC(=O)[C@H]3CO3)[C@@](C)(O1)[C@@H]1CC[C@@H](C)[C@H]1[C@@H]2OC(=O)/C=C/c1ccccc1 | 9.22 | 27.1 | 12.9 µM | 38.6 µM | 0.108 µM | 3.07 µM | 14.9 µM | 28.5 µM | 31.5 µM | > 100 µM | 9.59 µM | > 88.1 µM | 24.7 µM | > 100 µM | 18.1 µM | > 100 µM | 27 µM | > 100 µM | 17.8 µM | 41.5 µM
14 | CCCCCCCCCCCCCCCCCC1=NCCN1CS(=O)(=O)O | 7.82 | 26.2 | 9.34 µM | 23.7 µM | 13 µM | 28.8 µM | 18.8 µM | 40.5 µM | 5.19 µM | 17.2 µM | 11.4 µM | 26.1 µM | 7.85 µM | > 100 µM | 10.2 µM | 38.6 µM | 6.19 µM | 21 µM | 17 µM | 34.4 µM
15 | CN1CCCNc2c(c(=O)c2=O)NCCCN(C)CCCNc2c(c(=O)c2=O)NCCCN(C)CCCNc2c(c(=O)c2=O)NCCCN(C)CCCNc2c(c(=O)c2=O)NCCCN(C)CCCNc2c(c(=O)c2=O)NCCCN(C)CCCNc2c(c(=O)c2=O)NCCCN(C)CCCNc2c(c(=O)c2=O)NCCC1 |  |  | 4.42 µM | 19.1 µM | 1.66 µM | 6.87 µM | 6.69 µM | 21.9 µM | 1.68 µM | 5.9 µM | 7.02 µM | 22.2 µM | 12.1 µM | > 50 µM | 9.7 µM | 45.2 µM | 6.86 µM | 18.6 µM | 7.18 µM | 22.1 µM
16 | COc1ccccc1-n1c(-c2cc(O)ccc2C)cn2c3c(=O)[nH]c(=O)n(C)c3nc12 |  |  | 3.06 µM | > 100 µM | 1.99 µM | 63.5 µM | 53.2 µM | > 100 µM | 7.04 µM | > 100 µM | > 100 µM | > 100 µM | 66 µM | > 100 µM | 85.9 µM | > 100 µM | 90.8 µM | > 100 µM | > 100 µM | > 100 µM
17 | NC(=O)C1=NNc2ccccc2C(=O)N1c1ccccc1 |  |  |  | > 100 µM |  | > 100 µM |  | > 100 µM |  | > 100 µM |  | > 100 µM |  | > 100 µM |  | > 100 µM |  | > 100 µM |  | 
18 | O=C(OCc1ccccc1)N1CCN(/[N+]([O-])=N/Oc2ccc([N+](=O)[O-])cc2[N+](=O)[O-])CC1 |  |  | 3.58 µM | 9.48 µM | 7.12 µM | 26.6 µM | 6.43 µM | 21.1 µM | 5.56 µM | 18.7 µM | 14.2 µM | 28.5 µM | 4.7 µM | > 100 µM | 4.47 µM | > 100 µM |  |  |  | 
19 | CSc1cnn(CCC#N)c(=O)n1 |  |  |  | > 100 µM |  | > 100 µM |  | > 100 µM |  | > 100 µM |  | > 100 µM |  | > 100 µM |  | > 100 µM |  | > 100 µM |  | > 100 µM
20 | CCC(C)n1cc(C)c2c(C(=O)NCc3c(C)cc(C)[nH]c3=O)cc(Br)cc21 (stereo not given) |  |  | 45 µM | > 100 µM | 46.1 µM | > 100 µM | 13.2 µM | 29.1 µM | 76.8 µM | > 100 µM | 19.1 µM | 66.9 µM | 32.9 µM | > 100 µM | 26.2 µM | 71.6 µM | 35.2 µM | > 100 µM | 52.4 µM | > 100 µM
21 | Cc1ccc(NC(=O)NC(=O)c2ccc([N+](=O)[O-])cc2[N+](=O)[O-])cc1Oc1ncc(Cl)cn1 |  |  |  | 24.2 µM |  | > 100 µM |  | 0.819 µM |  | > 100 µM |  | 12.2 µM |  | 16.9 µM |  | 49.8 µM |  | 11.3 µM |  | 0.619 µM
22 | CCN(CC)CCCNc1cccc2c(SCc3ccccc3)ccnc12 | 2.18 | 7.32 | 1.01 µM | 2.48 µM | 1.81 µM | 3.27 µM | 1.68 µM | 3.08 µM | 1.86 µM | 3.49 µM | 1.86 µM | 4.88 µM | 1.79 µM | 4.47 µM |  |  | 1.96 µM | 3.6 µM | 1.73 µM | 3.2 µM
